Measured values: article PMC7278776, “Multidrug Resistance Modulation Activity of Silybin Derivatives and Their Anti-Inflammatory Potential” (Antioxidants, 2020)

Tested on: A2780/DOX
Test: Viability of A2780/DOX cells (resazurin)
Conditions: Homo sapiens, A2780, read-out: IC50 (µM), concentration necessary to halve cell viability
Procedure: To determine the NO production, the medium was mixed with Griess reagent (0.04 g/mL, prepared in deionized water) in a 1:1 ratio. After 15 min, absorbance was recorded at 540 nm. To determine cell viability, the resazurin solution (0.03 mg/mL in PBS) was added to the cells. After 2 h of incubation, fluorescence was recorded (560/590 nm, ex./em.).
A multidrug resistant ovarian sub-line resistant to doxorubicin (A2780/DOX, Sigma-Aldrich) was cultivated in DMEM medium with 10% FBS and 1 × antibiotic antimycotic solution. Every other passage, doxorubicin at the final concentration of 0.1 µM was added to the culture medium to maintain the resistance of the cell line. To perform experiments, the cells were seeded at 1 × 10^5 cell/mL into the wells of a 96-well plate and incubated for 24 h. Afterwards, the cells were washed with PBS and fresh DMEM medium with tested compounds at 10, 20 and 30 µM were added to each well, except for the control wells. Subsequently, the cells were exposed to increasing concentrations of doxorubicin (0.6–20 µM) for 72 h. After incubation, the resazurin assay was performed as described above. The IC50 of doxorubicin was calculated for both the control and the samples and the fold change was counted up. […] The fold change lower than 1 means an antagonistic effect. (1) FOLD CHANGE=IC50 value of DOX cells treated with chemotherapeutic /IC50 value of DOX cells treated with chemotherapeutic and compound

SMILES	IC50 [µM]
COc1cc([C@H]2Oc3cc([C@H]4Oc5cc(O)cc(O)c5C(=O)[C@@H]4O)ccc3O[C@@H]2CO)ccc1O [Silybin A, silybin A]	252 ± 7.6
COc1cc(C2Oc3cc([C@H]4Oc5cc(O)cc(O)c5C(=O)[C@@H]4O)ccc3OC2CO)ccc1O (stereo partly shown) [Silybin AB, silybin]	197 ± 4
COc1cc([C@@H]2Oc3cc([C@H]4Oc5cc(O)cc(O)c5C(=O)[C@@H]4O)ccc3O[C@H]2CO)ccc1O [Silybin B, silybin B]	194 ± 8.8

Tested on: ABCF3
Test: ABCF3 mRNA expression (real-time PCR)
Type: cell-based, human
Conditions: A2780/DOX, 10 µM combined with doxorubicin at IC25, 48 h
Procedure: The A2780/DOX cell line was seeded into 5 cm Petri dishes with DMEM medium at 1 × 10^5 cell/mL. […] After 48 h of treatment, the cells were washed with PBS and harvested using the standard trypsin-EDTA procedure. The harvested cells were centrifuged (3200× g; 10 min, 4 °C). The supernatant was discarded, and the pellets were washed with 1.5 mL of cooled PBS (5400× g; 10 min, 4 °C). The washing step was repeated with 1 mL of PBS and the cells were centrifuged again (10,000× g; 3 min, 4 °C). Afterwards, the pellets were resuspended in 1 mL of Trizol (Invitrogen, Carlsbad, CA, USA) and transferred into pre-cooled RNase-free microfuge tubes. The samples were stored at −80 °C.
(§1) A Quant-iT RiboGreen RNA Assay Kit (Invitrogen) was used to determine the RNA concentration using the Infinite M200 plate reader (Tecan, Männedor, Switzerland). The cDNA was prepared from 0.5 µg of total RNA using a RevertAid First Strand Synthesis cDNA Kit (MBI Fermentas, Vilnius, Lithuania). The amplification of the ubiquitin C gene fragment was used to determine the quality of cDNA.
(§2) The experiment was performed using the ViiA7 Real-Time polymerase chain reaction (PCR) System (Life Technologies, Camarillo, CA, USA) with a 384-well block. Before quantitative real-time PCR, the master mix was prepared by mixing 2 µL of 8 × diluted cDNA, 1.75 µL of RNase free water, 1 µL of 5 × HotFIREPol Probe quantitative PCR Mix Plus (Solis Biodyne, Tartu, Estonia) and 0.25 µL of specific 20 × TaqMan Gene Expression Assay (Life Technologies), giving 5 µL of final reaction volume. Cycling parameters were: initial hold at 50 °C for 2 min and denaturation at 95 °C for 10 min, followed by 45 cycles consisting of denaturation at 95 °C for 15 s and annealing/extension at 60 °C for 1 min. After each extension phase, the fluorescence values were acquired. Duplicate samples were used for measurement and samples with a standard deviation of duplicates > 1.0 cycle threshold (Ct) were re-analyzed. The real time PCR procedure was maintained according to MIQE (Minimum information for publication of quantitative real-time PCR experiments) guidelines. The software REST 2009 (Qiagen, Hilden, Germany) served to compare relative transcript levels of genes in the cell line.

SMILES	ABCF3 Expression Difference
COc1cc([C@H]2Oc3cc([C@H]4Oc5cc(O)cc(O)c5C(=O)[C@@H]4O)ccc3O[C@@H]2CO)ccc1O [Silybin A, silybin A]	1.570
COc1cc(C2Oc3cc([C@H]4Oc5cc(O)cc(O)c5C(=O)[C@@H]4O)ccc3OC2CO)ccc1O (stereo partly shown) [Silybin AB, silybin]	1.554
COc1cc([C@@H]2Oc3cc([C@H]4Oc5cc(O)cc(O)c5C(=O)[C@@H]4O)ccc3O[C@H]2CO)ccc1O [Silybin B, silybin B]	1.335

Same assay, conditions: A2780/DOX, 10 µM, 48 h, without doxorubicin

SMILES	ABCF3 Expression Difference	ABCF3 Treated vs. Untreated
COc1cc(C2Oc3cc([C@H]4Oc5cc(O)cc(O)c5C(=O)[C@@H]4O)ccc3OC2CO)ccc1O (stereo partly shown) [Silybin AB, silybin]	1.440	
COc1cc([C@@H]2Oc3cc([C@H]4Oc5cc(O)cc(O)c5C(=O)[C@@H]4O)ccc3O[C@H]2CO)ccc1O [Silybin B, silybin B]	0.328	DOWN

Tested on: ABCA2
Test: ABCA2 mRNA expression (real-time PCR)
Type: cell-based, human
Conditions: A2780/DOX, 10 µM combined with doxorubicin at IC25, 48 h
Procedure: (§3) The A2780/DOX cell line was seeded into 5 cm Petri dishes with DMEM medium at 1 × 10^5 cell/mL. After 24 h, the dishes were washed with PBS and new DMEM medium supplemented with doxorubicin (at concentration equal to IC25) and samples (10 µM) were added. After 48 h of treatment, the cells were washed with PBS and harvested using the standard trypsin-EDTA procedure. The harvested cells were centrifuged (3200× g; 10 min, 4 °C). The supernatant was discarded, and the pellets were washed with 1.5 mL of cooled PBS (5400× g; 10 min, 4 °C). The washing step was repeated with 1 mL of PBS and the cells were centrifuged again (10,000× g; 3 min, 4 °C). Afterwards, the pellets were resuspended in 1 mL of Trizol (Invitrogen, Carlsbad, CA, USA) and transferred into pre-cooled RNase-free microfuge tubes. The samples were stored at −80 °C.
as §1, §2

SMILES	ABCA2 Expression Difference	ABCA2 Treated vs. Untreated
COc1cc([C@H]2Oc3cc([C@H]4Oc5cc(O)cc(O)c5C(=O)[C@@H]4O)ccc3O[C@@H]2CO)ccc1O [Silybin A, silybin A]	1.239	
COc1cc(C2Oc3cc([C@H]4Oc5cc(O)cc(O)c5C(=O)[C@@H]4O)ccc3OC2CO)ccc1O (stereo partly shown) [Silybin AB, silybin]	1.207	
COc1cc([C@@H]2Oc3cc([C@H]4Oc5cc(O)cc(O)c5C(=O)[C@@H]4O)ccc3O[C@H]2CO)ccc1O [Silybin B, silybin B]	0.903	DOWN

Tested on: A2780/DOX
Test: Sensitization of the MDR cell line to doxorubicin
Type: cell-based, human
Conditions: compound 10 µM

SMILES	Doxorubicin-sensitization rate (ratio of IC50 of doxorubicin and doxorubicin + tested compound)
COc1cc([C@H]2Oc3cc([C@H]4Oc5cc(O)cc(O)c5C(=O)[C@@H]4O)ccc3O[C@@H]2CO)ccc1O [Silybin A, silybin A]	(1.3 ± 0.1) ×
COc1cc(C2Oc3cc([C@H]4Oc5cc(O)cc(O)c5C(=O)[C@@H]4O)ccc3OC2CO)ccc1O (stereo partly shown) [Silybin AB, silybin]	(1.4 ± 0.1) ×
COc1cc([C@@H]2Oc3cc([C@H]4Oc5cc(O)cc(O)c5C(=O)[C@@H]4O)ccc3O[C@H]2CO)ccc1O [Silybin B, silybin B]	(1.4 ± 0.1) ×

Same assay, conditions: compound 20 µM

SMILES	Doxorubicin-sensitization rate (ratio of IC50 of doxorubicin and doxorubicin + tested compound)
COc1cc([C@H]2Oc3cc([C@H]4Oc5cc(O)cc(O)c5C(=O)[C@@H]4O)ccc3O[C@@H]2CO)ccc1O [Silybin A, silybin A]	(1.6 ± 0.2) ×
COc1cc(C2Oc3cc([C@H]4Oc5cc(O)cc(O)c5C(=O)[C@@H]4O)ccc3OC2CO)ccc1O (stereo partly shown) [Silybin AB, silybin]	(1.6 ± 0.1) ×
COc1cc([C@@H]2Oc3cc([C@H]4Oc5cc(O)cc(O)c5C(=O)[C@@H]4O)ccc3O[C@H]2CO)ccc1O [Silybin B, silybin B]	(1.5 ± 0.2) ×

Same assay, conditions: compound 30 µM

SMILES	Doxorubicin-sensitization rate (ratio of IC50 of doxorubicin and doxorubicin + tested compound)
COc1cc([C@H]2Oc3cc([C@H]4Oc5cc(O)cc(O)c5C(=O)[C@@H]4O)ccc3O[C@@H]2CO)ccc1O [Silybin A, silybin A]	(1.9 ± 0.1) ×
COc1cc(C2Oc3cc([C@H]4Oc5cc(O)cc(O)c5C(=O)[C@@H]4O)ccc3OC2CO)ccc1O (stereo partly shown) [Silybin AB, silybin]	(1.7 ± 0.1) ×
COc1cc([C@@H]2Oc3cc([C@H]4Oc5cc(O)cc(O)c5C(=O)[C@@H]4O)ccc3O[C@H]2CO)ccc1O [Silybin B, silybin B]	(1.8 ± 0.1) ×

Same assay, conditions: compound 50 µM

SMILES	Doxorubicin-sensitization rate (ratio of IC50 of doxorubicin and doxorubicin + tested compound)
COc1cc([C@H]2Oc3cc([C@H]4Oc5cc(O)cc(O)c5C(=O)[C@@H]4O)ccc3O[C@@H]2CO)ccc1O [Silybin A, silybin A]	(3.6 ± 0.3) ×
COc1cc(C2Oc3cc([C@H]4Oc5cc(O)cc(O)c5C(=O)[C@@H]4O)ccc3OC2CO)ccc1O (stereo partly shown) [Silybin AB, silybin]	(7.7 ± 0.4) ×
COc1cc([C@@H]2Oc3cc([C@H]4Oc5cc(O)cc(O)c5C(=O)[C@@H]4O)ccc3O[C@H]2CO)ccc1O [Silybin B, silybin B]	(3.3 ± 0.4) ×

Same assay, conditions: compound 50 µM, listed as silybin AB

SMILES	Doxorubicin-sensitization rate (ratio of IC50 of doxorubicin and doxorubicin + tested compound) [×]
COc1cc(C2Oc3cc([C@H]4Oc5cc(O)cc(O)c5C(=O)[C@@H]4O)ccc3OC2CO)ccc1O (stereo partly shown) [Silybin AB, silybin]	~10

Tested on: ABCD3
Test: ABCD3 mRNA expression (real-time PCR)
Type: cell-based, human
Conditions: A2780/DOX, 10 µM combined with doxorubicin at IC25, 48 h
Procedure: as §3, §1, §2

SMILES	ABCD3 Expression Difference
COc1cc([C@H]2Oc3cc([C@H]4Oc5cc(O)cc(O)c5C(=O)[C@@H]4O)ccc3O[C@@H]2CO)ccc1O [Silybin A, silybin A]	1.637
COc1cc(C2Oc3cc([C@H]4Oc5cc(O)cc(O)c5C(=O)[C@@H]4O)ccc3OC2CO)ccc1O (stereo partly shown) [Silybin AB, silybin]	1.560

Same assay, conditions: A2780/DOX, 10 µM, 48 h, without doxorubicin

SMILES	ABCD3 Expression Difference	ABCD3 Treated vs. Untreated
COc1cc(C2Oc3cc([C@H]4Oc5cc(O)cc(O)c5C(=O)[C@@H]4O)ccc3OC2CO)ccc1O (stereo partly shown) [Silybin AB, silybin]	2.181	
COc1cc([C@@H]2Oc3cc([C@H]4Oc5cc(O)cc(O)c5C(=O)[C@@H]4O)ccc3O[C@H]2CO)ccc1O [Silybin B, silybin B]	0.337	DOWN

Tested on: HepG2 cells
Test: CAA (cellular antioxidant activity) assay
Type: cell-based
Conditions: Homo sapiens; HepG2, DCFH-DA/AAPH; read-out: CAA, concentration necessary to halve the fluorescence response (IC50)
Procedure: For the CAA assay, human hepatocellular carcinoma HepG2 cells (ATCC, Manassas, VA, USA) were seeded into a 96-well microplate at a density of 1 × 10^5 cells/well in EMEM medium supplemented with 10% of FBS, 2 mM L-glutamine and 1 × antibiotic antimycotic solution. The cells were maintained in a CO2 incubator (5% CO2, 37 °C, Memmert GmbH & Co, Büchenbach, Germany). The following day, the plates were washed with PBS and new fresh DMEM was added into each well supplemented with tested samples in the concentration range of 6.25–100 µM and fluorescent probe DCFH-DA (12.5 mg/L). After 1 h of incubation at 37 °C, the medium was replaced with AAPH solution (0.16 mg/mL in PBS), except for the negative control, where PBS was added instead. Directly, the fluorescence was recorded for 2 h in 5 min steps at 485/540 nm excitation/emission (ex./em.).

SMILES	IC50 [µM]
COc1cc([C@H]2Oc3cc([C@H]4Oc5cc(O)cc(O)c5C(=O)[C@@H]4O)ccc3O[C@@H]2CO)ccc1O [Silybin A, silybin A]	9.8 ± 0.4
COc1cc(C2Oc3cc([C@H]4Oc5cc(O)cc(O)c5C(=O)[C@@H]4O)ccc3OC2CO)ccc1O (stereo partly shown) [Silybin AB, silybin]	10.7 ± 0.9
COc1cc([C@@H]2Oc3cc([C@H]4Oc5cc(O)cc(O)c5C(=O)[C@@H]4O)ccc3O[C@H]2CO)ccc1O [Silybin B, silybin B]	8.9 ± 0.3

Tested on: ABCC5
Test: ABCC5 mRNA expression (real-time PCR)
Type: cell-based, human
Conditions: A2780/DOX, 10 µM combined with doxorubicin at IC25, 48 h
Procedure: as §3, §1, §2

SMILES	ABCC5 Expression Difference
COc1cc([C@H]2Oc3cc([C@H]4Oc5cc(O)cc(O)c5C(=O)[C@@H]4O)ccc3O[C@@H]2CO)ccc1O [Silybin A, silybin A]	1.782
COc1cc(C2Oc3cc([C@H]4Oc5cc(O)cc(O)c5C(=O)[C@@H]4O)ccc3OC2CO)ccc1O (stereo partly shown) [Silybin AB, silybin]	1.787
COc1cc([C@@H]2Oc3cc([C@H]4Oc5cc(O)cc(O)c5C(=O)[C@@H]4O)ccc3O[C@H]2CO)ccc1O [Silybin B, silybin B]	1.473
